Assay results published in US20130178523A1, “ANTI-CANCER COMPOSITIONS AND METHODS” (THE PENN STATE RESEARCH FOUNDATION, priority 2007, published 2013).
Read-outs that look alike come from different tables or passages of the source.

Tests used:
T-98-G = assay: MTS assay, glioblastoma cells; conditions: Homo sapiens, T98G, 24 h
HT-1080 = assay: MTS assay, fibrosarcoma cells; conditions: Homo sapiens, HT-1080, 24 h
Caco-2 = assay: MTS assay, colon cancer cells; conditions: Homo sapiens, Caco-2, 24 h
MDA-MB-231 = assay: MTS assay, breast cancer cells; conditions: Homo sapiens, MDA-MB-231, 24 h
WM115 melanoma cells = assay: MTS cell viability assay, WM115; conditions: Homo sapiens, WM-115, 24 h
PC-3 = assay: MTS assay, prostate cancer cells; conditions: Homo sapiens, PC-3, 24 h
1205 Lu melanoma cells [1] = assay: MTS cell viability assay, 1205 Lu; conditions: Homo sapiens, 24 h
UACC 903 melanoma cells [2] = assay: MTS cell viability assay, UACC 903; conditions: Homo sapiens, UACC-903, 24 h
UACC 903 melanoma cells [3] = assay: Tumor development in nude mice, subcutaneous UACC 903, i.p. treatment; conditions: for melanoma tumor volume: 0.76 μmoles (3 ppm selenium) i.p. thrice per week, day 24, doses 3× lower than isothiocyanates; for tumor burden: UACC 903
UACC 903 cells [4] = assay: BrdU ELISA cellular proliferation; format: cell-based, human; conditions: 24 hours; for proliferative potential with increasing concentrations: 5, 10, 15 μM
Method: Proliferation rate is measured using a BrdU ELISA kit (Roche Applied Sciences, Indianapolis, Ind.).
BrdUrd is used to label cells for 4-6 hours. At 15 μM concentration, ISC-4 and ISC-6 reduced UACC 903 cellular proliferative potential by ˜80-90% compared to controls. Results represent the average of 3 independent experiments; bars represent SEM. The average value is represented as the percentage of control DMSO treated cells.

UACC 903 cells [5] = assay: Apo-ONE caspase-3/7 apoptosis assay; format: cell-based, human; conditions: 24 hours; for cellular apoptosis with increasing concentrations (caspase-3/7 activity, words): 5, 10, 15 μM
Method: Apoptosis rates are measured using an Apo-ONE Homogenous caspase-3/7 Assay kit (Promega Corporation, Madison, Wis.).
The isoselenocyanate compounds promote apoptosis in melanoma cells. […] The graphs in FIGS. 3A and 3B show fold increase in caspase-3/7 activity relative to DMSO vehicle treated cells on the x-axis. Results represent average of 3 independent experiments. Bars indicate SEM.

UACC 903 cells [6] = assay: Cell cycle analysis (propidium iodide, FACScan); conditions: 24 hours
Akt signaling pathway = assay: Western blot of Akt signaling pathway in cultured melanoma cells (FIG. 9); conditions: 24 hours
1205 Lu melanoma cells [7] = assay: Tumor development in nude mice, subcutaneous 1205 Lu, i.p. treatment; format: in vivo; conditions: 0.76 μmoles i.p. thrice per week
From the text: (Monday, Wednesday and Friday).

[8] = Toxicity assessments in nude mice (blood parameters, histology); format: in vivo
From the text: Animals are sacrificed by CO2 asphyxiation and blood collected from each animal in plasma separator tubes with lithium heparin (BD Microtainer, BD, Franklin Lakes, N.J.) following cardiac puncture and analyzed for AST (aspartate aminotransferase), ALT, (alanyl aminotransferase), alkaline phosphatase, glucose and creatinine to ascertain liver, heart, kidney and pancreas related toxicity. For morphological examination of blood cells, whole blood is collected in microtainer tubes containing K2EDTA (BD Microtainer, BD, Franklin Lakes, N.J.) and RBC, WBC, lymphocytes, monocytes, eosinophils, platelets, total hemoglobin and hematocrit percentage analyzed. Blood is also microscopically examined for segregates, polychromatin bodies, and smudge cells. A portion of liver, heart, kidney, spleen, intestine pancreas and adrenal from each animal is formalin fixed and paraffin-embedded to examine toxicity-related changes in cell or organ morphology by H&E staining.

A549 (lung) = assay: IC-50 in various cell lines (Table V), A549; format: cell-based; conditions: Homo sapiens
UACC-903 (Melanoma) = assay: IC-50 in various cell lines (Table V), UACC-903; format: cell-based; conditions: Homo sapiens
1205LU (Melanoma) = assay: IC-50 in various cell lines (Table V), 1205LU; format: cell-based; conditions: Homo sapiens
CaCO2 (Colon Carcinoma) = assay: IC-50 in various cell lines (Table V), CaCO2; format: cell-based; conditions: Homo sapiens, Caco-2
MDA-MB 231 (breast) = assay: IC-50 in various cell lines (Table V), MDA-MB 231; format: cell-based; conditions: Homo sapiens
PC-3 (Prostate) = assay: IC-50 in various cell lines (Table V), PC-3; format: cell-based
[9] = test system: HT1080 (Soft Tissue Sarcoma); assay: IC-50 in various cell lines (Table V), HT1080; format: cell-based; conditions: Homo sapiens, HT-1080
[10] = test system: IGROV-1 (ovarian carcinoma); assay: IC-50 in various cell lines (Table V), IGROV-1; format: cell-based; conditions: Homo sapiens
[11] = test system: FF2441 (fibroblast cells); assay: IC-50 in various cell lines (Table V), FF2441; format: cell-based; conditions: Homo sapiens
UACC 903M cells = assay: IC50 of NAC conjugate in UACC 903M cells; format: cell-based
[12] = 0.76 μmoles i.p. thrice per week

Row | SMILES | IC50 (T-98-G) [µM] | IC50 (HT-1080) [µM] | IC50 (Caco-2) [µM] | IC50 (MDA-MB-231) [µM] | IC50 (WM115 melanoma cells) [µM] | IC50 (PC-3) [µM] | IC50 (1205 Lu melanoma cells [1]) [µM] | IC50 (UACC 903 melanoma cells [2]) [µM] | G0/G1 cell population (UACC 903 cells [6]; 15 μM) | G2/M cell population (UACC 903 cells [6]; 15 μM) | S cell population (UACC 903 cells [6]; 15 μM) | subG0/G1 cell population (UACC 903 cells [6]; 15 μM) | also measured
1 | S=C=NCc1ccccc1 [BITC, Benzyl isothiocyanate, reference compound] | > 100 | > 50 | 15 ± 2 | 42 ± 3 | 13 | > 50 | > 25 | 15 | – | – | – | – | effect on tumor size (UACC 903 melanoma cells [3]; 2.5 micromoles i.p. thrice per week, FIG. 18C): most effective
2 | [Se]=C=NCc1ccccc1 [ISC-1, Benzyl Isoselenocyanate] | 43 ± 4 | 13 ± 3 | 13 ± 3 | 29 ± 2 | > 25 | 24 ± 1 | > 25 | 16 | – | – | – | – | effect on tumor size (UACC 903 melanoma cells [3]; 0.76 μmoles i.p. thrice per week, Example 30): failed to show any effect
3 | [Se]=C=NCCc1ccccc1 [ISC-2, Phenylethyl Isoselenocyanate] | 24 ± 1 | 12 ± 3 | 11 ± 1 | 20 ± 3 | 8 | 16 ± 1 | 18 | 12 | – | – | – | – | melanoma tumor volume (UACC 903 melanoma cells [3]): reduce tumor volume
4 | [Se]=C=NCCCCCCc1ccccc1 [ISC-6, Phenylhexyl Isoselenocyanate] | 23 ± 2 | 12 ± 1 | 10 ± 1 | 22 ± 2 | 7 | 14 ± 1 | 7 | 10 ± 1 | 41.6 | 26.1 | 32.2 | 15.9 | proliferative potential with increasing concentrations (UACC 903 cells [4]): decreased proliferative potential; fold more effective than PBITC or PHITC at inhibiting cellular proliferation (UACC 903 cells [4]; 5-15 μM): ~2 fold; cellular apoptosis with increasing concentrations (caspase-3/7 activity, words) (UACC 903 cells [5]): increase cellular apoptosis; fold more effective than PBITC at inducing apoptosis (UACC 903 cells [5]; caspase-3/7 activity, 5-15 μM): ~2 fold; G0/G1 cell population (UACC 903 cells [6]; 5 μM): 56.8; G2/M cell population (UACC 903 cells [6]; 5 μM): 13.5; S cell population (UACC 903 cells [6]; 5 μM): 31.5; subG0/G1 cell population (UACC 903 cells [6]; 5 μM): 1.5; G0/G1 cell population (UACC 903 cells [6]; 10 μM): 44.9; G2/M cell population (UACC 903 cells [6]; 10 μM): 24.5; S cell population (UACC 903 cells [6]; 10 μM): 30.5; subG0/G1 cell population (UACC 903 cells [6]; 10 μM): 7.6; melanoma tumor volume (UACC 903 melanoma cells [3]): reduce tumor volume; concentration completely inhibiting the Akt3 pathway (Western blot) (Akt signaling pathway): 10 µM
5 | S=C=NCCCCc1ccccc1 [PBITC, phenylbutylisothiocyanate, reference compound] | 35 ± 1 | 15 ± 1 | 27 ± 2 | 27 ± 2 | 7 ± 1 | 24 ± 2 | 19 ± 5 | 15 ± 1 | 42.1 | 27.4 | 30.5 | 20.8 | proliferative potential with increasing concentrations (UACC 903 cells [4]): decreased proliferative potential; cellular apoptosis with increasing concentrations (caspase-3/7 activity, words) (UACC 903 cells [5]): increase cellular apoptosis; tumor burden (1205 Lu melanoma cells [7]): ineffective at reducing tumor burden; blood SGOT, SGPT, alkaline phosphatase, glucose and creatinine ([8]; 0.76 μmoles i.p. 3 times per week for 3 weeks, compared to vehicle DMSO): did not alter parameters; basal urea nitrogen (BUN), creatinine and glucose levels ([8]; treated versus control animals): not significantly different; G0/G1 cell population (UACC 903 cells [6]; 5 μM): 37.4; G2/M cell population (UACC 903 cells [6]; 5 μM): 34.7; S cell population (UACC 903 cells [6]; 5 μM): 27.8; subG0/G1 cell population (UACC 903 cells [6]; 5 μM): 4.9; G0/G1 cell population (UACC 903 cells [6]; 10 μM): 37.2; G2/M cell population (UACC 903 cells [6]; 10 μM): 31.9; S cell population (UACC 903 cells [6]; 10 μM): 30.9; subG0/G1 cell population (UACC 903 cells [6]; 10 μM): 10.4; tumor burden (UACC 903 melanoma cells [3]; [12]): ineffective at reducing tumor burden
6 | S=C=NCCc1ccccc1 [PEITC, phenylethyl isothiocyanate, reference compound] | > 100 | 15 ± 1 | 14 ± 2 | 38 ± 6 | 12 ± 1 | 24 ± 2 | 24 ± 2 | 12 ± 1 | – | – | – | – | –
7 | S=C=NCCCCCCc1ccccc1 [PHITC, Phenylhexylisothiocyanate] | 26 ± 2 | 29 ± 3 | 49 ± 9 | 24 ± 2 | 8 ± 1 | 17 ± 1 | 11 ± 4 | 15 ± 2 | 40.7 | 29.7 | 29.6 | 12.5 | proliferative potential with increasing concentrations (UACC 903 cells [4]): decreased proliferative potential; cellular apoptosis with increasing concentrations (caspase-3/7 activity, words) (UACC 903 cells [5]): increase cellular apoptosis; tumor burden (1205 Lu melanoma cells [7]): ineffective at reducing tumor burden; G0/G1 cell population (UACC 903 cells [6]; 5 μM): 58.7; G2/M cell population (UACC 903 cells [6]; 5 μM): 13.1; S cell population (UACC 903 cells [6]; 5 μM): 28.2; subG0/G1 cell population (UACC 903 cells [6]; 5 μM): 1.4; G0/G1 cell population (UACC 903 cells [6]; 10 μM): 43.8; G2/M cell population (UACC 903 cells [6]; 10 μM): 27.5; S cell population (UACC 903 cells [6]; 10 μM): 28.7; subG0/G1 cell population (UACC 903 cells [6]; 10 μM): 5.4; tumor burden (UACC 903 melanoma cells [3]; [12]): ineffective at reducing tumor burden
8 | N#C[Se]CCCCCCc1ccccc1 [PHSC, Phenylhexyl selenocyanate] | – | – | – | – | – | – | – | – | 61.4 | 11.5 | 26.9 | 2.4 | –
9 | C[S+]([O-])CCCCN=C=[Se] (stereo not drawn) [SFN Iso Se, 1-isoselenocyanato-4-(methylsulfinyl)butane] | – | – | – | – | – | – | – | – | – | – | – | – | IC50 (A549 (lung); A549): 35 ± 1.7 µM; IC50 (UACC-903 (Melanoma); UACC-903): 17 ± 0.95 µM; IC50 (1205LU (Melanoma); 1205Lu): 39.2 ± 2 µM; IC50 (CaCO2 (Colon Carcinoma)): 16 ± 0.4 µM; IC50 (MDA-MB 231 (breast); MDA-MB-231): 20 ± 0.46 µM; IC50 (PC-3 (Prostate)): 24.8 ± 0.58 µM; IC50 [9]: 25.6 ± 1.82 µM; IC50 ([10]; IGROV-1): > 50 µM; IC50 ([11]; FF2441): > 50 µM; tumor development (UACC 903 melanoma cells [3]; 0.76 micromoles (3 ppm selenium) i.p., compared to controls, FIG. 14A): inhibition of tumor development
10 | C[S+]([O-])CCCCN=C=S (stereo not drawn) [SFN, sulforaphane, reference compound] | – | – | – | – | – | – | – | – | – | – | – | – | IC50 (A549 (lung); A549 (lung), read-out: IC-50): 73 ± 3.6 µM; IC50 (UACC-903 (Melanoma); UACC-903 (Melanoma), read-out: IC-50): 40 ± 0.89 µM; IC50 (1205LU (Melanoma); 1205LU (Melanoma), read-out: IC-50): > 50 µM; IC50 (CaCO2 (Colon Carcinoma); CaCO2 (Colon Carcinoma), read-out: IC-50): 48 ± 5.9 µM; IC50 (MDA-MB 231 (breast); MDA-MB 231 (breast), read-out: IC-50): 57 ± 5 µM; IC50 (PC-3 (Prostate); PC-3 (Prostate), read-out: IC-50): > 50 µM; IC50 ([9]; HT1080 (Soft Tissue Sarcoma), read-out: IC-50): > 50 µM; IC50 ([10]; IGROV-1 (ovarian carcinoma), read-out: IC-50): > 50 µM; IC50 ([11]; FF2441 (fibroblast cells), read-out: IC-50): > 50 µM
11 | CC(=O)NC(CSC(=[Se])NCCCCc1ccccc1)C(=O)O (stereo not drawn) [compound 5] | – | – | – | – | – | – | – | – | – | – | – | – | IC50 (UACC 903M cells): 17 ± 2 µM
